# Source: patent publication US20210101928A1 (Sage Therapeutics, Inc., priority 2017, published 2021)
# Biological target: GABAA receptor ([35S]-TBPS binding, rat brain cortical membranes)
# Experiment: Steroid inhibition of [35S]-TBPS binding
# Conditions: Table III-1 (biological data), 3 nM [35S]-TBPS, in the presence of 5 mM GABA, read-out: TBPS IC50
# Procedure, shortened: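 Sprague-Dawley rat cortical P2 membranes incubated 90 min at room temperature with 3 nM [35S]-TBPS, […] GABA and test compound (0.5% DMSO) in 200 mM NaCl/50 mM Na-K phosphate pH 7.4. Nonspecific binding with […] TBPS; filtration and scintillation counting; IC50 and Imax from nonlinear fits.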
row,SMILES,IC50 [nM]
1,"CC[C@]12CC[C@H]3[C@@H](CC[C@@H]4C[C@](C)(O)CC[C@@H]43)[C@@H]1CC[C@@H]2C(=O)Cn1cc(C#N)cn1 [III-A10, 1-(2-((3R,5R,8R,9R,10S,13S,14S,17S)-13-ethyl-3-hydroxy-3-methylhexadecahydro-1H-cyclopenta[a]phenanthren-17-yl)-2-oxoethyl)-1H-pyrazole-4-carbonitrile]",< 10
2,"CC[C@]12CC[C@H]3[C@@H](CC[C@H]4C[C@@](O)(COC)CC[C@@H]43)[C@@H]1CC[C@@H]2C(C)=O [III-A20, 1-((3R,5S,8R,9R,10S,13S,14S,17S)-13-ethyl-3-hydroxy-3-(methoxymethyl)hexadecahydro-1H-cyclopenta [a]phenanthren-17-yl)ethan-1-one]",10 to 100
3,"CC[C@]12CC[C@H]3[C@@H](CC[C@H]4C[C@@](O)(COC)CC[C@@H]43)[C@@H]1CC[C@@H]2C(=O)Cn1nnc(C)n1 [III-A22, 1-((3R,5S,8R,9R,10S,13S,14S,17S)-13-ethyl-3-hydroxy-3-(methoxymethyl)hexadecahydro-1H-cyclopenta [a]phenanthren-17-yl)-2-(5-methyl-2H-tetrazol-2-yl)ethan-1-one]",< 10
4,"CC[C@]12CC[C@H]3[C@@H](CC[C@H]4C[C@@](O)(COC)CC[C@@H]43)[C@@H]1CC[C@@H]2C(=O)Cn1nnnc1C [III-A23, 1-((3R,5S,8R,9R,10S,13S,14S,17S)-13-ethyl-3-hydroxy-3-(methoxymethyl)hexadecahydro-1H-cyclopenta[a]phenanthren-17-yl)-2-(5-methyl-1H-tetrazol-1-yl)ethan-1-one]",100 to 1000
5,"CC[C@]12CC[C@H]3[C@@H](CC[C@@H]4C[C@](C)(O)CC[C@@]43C)[C@@H]1CC[C@@H]2C(C)=O [III-A30, 1-((3R,5R,8R,9S,10S,13S,14S,17S)-13-ethyl-3-hydroxy-3,10-dimethylhexadecahydro-1H-cyclopenta [a]phenanthren-17-yl)ethan-1-one]",< 10
6,CC[C@]12CC[C@H]3[C@@H](CC[C@@H]4C[C@](C)(O)CC[C@@]43C)[C@@H]1CC[C@@H]2C(=O)Cn1nnc(C)n1 [III-A33],< 10
7,"CC[C@]12CC[C@H]3[C@@H](CC[C@@H]4C[C@@](O)(COC)CC[C@@H]43)[C@@H]1CC[C@@H]2C(C)=O [III-B15, 1-((3R,5R,8R,9R,10S,13S,14S,17S)-13-ethyl-3-hydroxy-3-(methoxymethyl)hexadecahydro-1H-cyclopenta[a]phenanthren-17-yl)ethan-1-one]",10 to 100
8,"CC[C@]12CC[C@H]3[C@@H](CC[C@@H]4C[C@@](O)(COC)CC[C@@H]43)[C@@H]1CC[C@@H]2C(=O)Cn1cc(C#N)cn1 [III-B17, 1-(2-((3R,5R,8R,9R,10S,13S,14S,17S)-13-ethyl-3-hydroxy-3-(methoxymethyl)hexadecahydro-1H-cyclopenta[a]phenanthren-17-yl)-2-oxoethyl)-1H-pyrazole-4-carbonitrile]",10 to 100
9,"COC[C@]12CC[C@H]3[C@@H](CC[C@@H]4C[C@](C)(O)CC[C@@H]43)[C@@H]1CC[C@@H]2C(C)=O [III-C11, 1-((3R,5R,8R,9R,10S,13R,14S,17S)-3-hydroxy-13-(methoxymethyl)-3-methylhexadecahydro-1H-cyclopenta[a]phenanthren-17-yl)ethan-1-one]",10 to 100
10,"COC[C@]12CC[C@H]3[C@@H](CC[C@@H]4C[C@](C)(O)CC[C@@H]43)[C@@H]1CC[C@@H]2C(=O)Cn1cc(C#N)cn1 [III-C13, 1-(2-((3R,5R,8R,9R,10S,13R,14S,17S)-3-hydroxy-13-(methoxymethyl)-3-methylhexadecahydro-1H-cyclopenta[a]phenanthren-17-yl)-2-oxoethyl)-1H-pyrazole-4-carbonitrile]",< 10
